{
  "source": "paper PMC9852063",
  "about": "(Molecular carcinogenesis, 2022)",
  "biological_target": "T1, Doublecortin like kinase 1 (DCLK1) (Homo sapiens, UniProt O15075)",
  "T1 sequence (O15075 1-740)": "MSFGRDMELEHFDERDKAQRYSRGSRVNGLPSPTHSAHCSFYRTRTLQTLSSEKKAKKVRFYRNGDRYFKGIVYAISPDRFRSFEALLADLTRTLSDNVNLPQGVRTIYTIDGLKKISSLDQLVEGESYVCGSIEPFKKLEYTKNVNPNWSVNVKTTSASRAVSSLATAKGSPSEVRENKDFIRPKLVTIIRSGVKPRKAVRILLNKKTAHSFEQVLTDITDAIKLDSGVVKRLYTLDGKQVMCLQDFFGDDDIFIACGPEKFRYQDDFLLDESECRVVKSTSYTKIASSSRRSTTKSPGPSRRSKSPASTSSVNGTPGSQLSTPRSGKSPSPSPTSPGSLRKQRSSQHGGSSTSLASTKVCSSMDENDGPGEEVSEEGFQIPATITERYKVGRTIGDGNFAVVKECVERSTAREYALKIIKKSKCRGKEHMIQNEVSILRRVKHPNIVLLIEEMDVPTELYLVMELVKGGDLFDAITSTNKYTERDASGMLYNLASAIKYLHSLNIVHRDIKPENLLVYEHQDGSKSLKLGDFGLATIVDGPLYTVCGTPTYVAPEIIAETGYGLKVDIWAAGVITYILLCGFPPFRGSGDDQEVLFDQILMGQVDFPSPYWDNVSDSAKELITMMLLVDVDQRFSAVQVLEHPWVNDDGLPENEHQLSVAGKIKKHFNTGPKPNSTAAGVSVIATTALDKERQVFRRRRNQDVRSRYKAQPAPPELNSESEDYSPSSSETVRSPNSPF",
  "experiment": "SPR with immobilized recombinant DCLK1",
  "type": "binding",
  "data": [
    {"smiles": "O=C1C(=Cc2ccc(F)cc2F)CNCC1=Cc1ccc(F)cc1F", "note": "[DiFiD, 3,5-bis (2,4-difluorobenzylidene)-4-piperidone]", "values": [
      {"measurement": "Kd", "result": 71, "unit": "nM"}
    ]}
  ]
}
